The structures appear in SMILES notation. Structures can show the parent of a compound that is named as a salt. Where two headings read alike, the source gives them in different places.

The target of one test is T1, β2-adrenoceptors (Rattus norvegicus, UniProt P10608).
T1 construct: measured in rats by determining the dosage in μg/kg i.v. of substance being tested; from tissue; host or cells: living rat (in vivo, i.v. dosing); vascular depressor response to isoprenaline
Briefly: 50% reduction in isoprenaline-induced depressor responses in rats (β-blocking activity, blood pressure). It counts as in vivo. The following applies: iv, read-out: ED50 (BP).

The next test deals with T2, β1-adrenoceptors (Rattus norvegicus, UniProt P18090).
T2 construct: measured in rats by determining the dosage in μg/kg i.v. of substance being tested; from tissue; host or cells: living rat (in vivo, i.v. dosing); heart rate response to isoprenaline
Kind of test: 50% reduction in isoprenaline-induced tachycardia in rats (β-blocking activity, heart rate). It counts as in vivo. The following applies: iv, read-out: ED50 (HR).

The mark [1] stands for this setting: rats, i.v., dosage for 50% reduction in isoprenaline-induced depressor responses.
The mark [2] stands for this setting: rats, i.v., dosage for 50% reduction in isoprenaline-induced tachycardia.

T2 sequence (P18090 whole entry): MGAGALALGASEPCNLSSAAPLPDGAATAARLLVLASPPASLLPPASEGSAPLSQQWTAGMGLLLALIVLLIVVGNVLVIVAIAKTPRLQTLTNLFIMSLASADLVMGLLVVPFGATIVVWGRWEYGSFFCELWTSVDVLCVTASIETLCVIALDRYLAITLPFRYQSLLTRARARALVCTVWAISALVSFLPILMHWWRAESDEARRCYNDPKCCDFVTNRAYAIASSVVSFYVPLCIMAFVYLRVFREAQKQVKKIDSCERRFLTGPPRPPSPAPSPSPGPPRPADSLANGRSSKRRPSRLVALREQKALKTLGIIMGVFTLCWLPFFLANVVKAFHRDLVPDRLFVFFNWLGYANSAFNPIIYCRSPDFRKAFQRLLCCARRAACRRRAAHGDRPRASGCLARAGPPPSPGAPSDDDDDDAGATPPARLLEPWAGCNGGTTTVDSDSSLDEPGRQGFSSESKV
T1 sequence (P10608 whole entry): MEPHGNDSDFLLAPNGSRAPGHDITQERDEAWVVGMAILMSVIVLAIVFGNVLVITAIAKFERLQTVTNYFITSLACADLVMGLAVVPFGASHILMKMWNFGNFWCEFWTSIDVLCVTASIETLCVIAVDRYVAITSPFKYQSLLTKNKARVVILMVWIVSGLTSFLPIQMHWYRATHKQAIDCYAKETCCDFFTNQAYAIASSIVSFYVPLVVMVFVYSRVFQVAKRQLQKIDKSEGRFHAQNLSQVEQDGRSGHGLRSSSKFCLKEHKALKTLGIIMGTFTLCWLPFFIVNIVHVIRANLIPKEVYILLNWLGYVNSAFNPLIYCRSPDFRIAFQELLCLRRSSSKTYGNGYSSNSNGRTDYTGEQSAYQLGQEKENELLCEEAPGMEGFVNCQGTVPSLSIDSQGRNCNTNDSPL

On to `CC(C)NCC(O)COc1ccc(OCCOCCc2ccccc2)cc1.Cl` (centres unmarked) [1-isopropylamino-3-[4-(2-phenethyloxyethoxy)phenoxy]-2-propanol hydrochloride], for which the ED50 is > 2 mg/kg on β2-adrenoceptors and 0.015 mg/kg on β1-adrenoceptors.

Regarding `CC(C)NCC(O)COc1ccc(OCCOCCc2ccc(F)cc2)cc1` (centres unmarked) [1-[4-[2-(4-fluorophenethyloxy)-ethoxy]phenoxy]-3-isopropylamino-2-propanolhydrochloride], the 50% effective dose (ED50) is > 2 mg/kg on β2-adrenoceptors (setting [1]) and 0.003 mg/kg at β1-adrenoceptors (setting [2]).

Regarding `CC(C)NCC(O)COc1ccc(OCCOCCc2ccccc2)cc1Cl` (centres unmarked) [1-[2-chloro-4-[2-(phenethyloxy)ethoxy]phenoxy]-3-isopropylamino-2-propanolhydrochloride], the ED50 at β2-adrenoceptors (setting [1]) was 0.834 mg/kg; at β1-adrenoceptors (setting [2]) it was 0.025 mg/kg.

For the molecule `CC(C)(C)NCC(O)COc1ccc(OCCOCCc2ccccc2)cc1.Cl` (centres unmarked) [1-tert.butylamino-3-[4-(2-phenethyloxyethoxy)phenoxy]-2-propanol hydrochloride], the median effective dose (ED50) was 0.979 mg/kg at β2-adrenoceptors and 0.018 mg/kg at β1-adrenoceptors.

As usually defined, the ED50 is the midpoint of the dose-response relation.
